pIC50: −log10 of the molar value.
Columns and labels:
Format in all cases: cell-based
A2780cis = test: MTT assay (CellTiter96), cytotoxic activity; settings: for RF A2780 (resistance factor): A2780cis vs A2780; for pIC50: Cisplatin resistant A2780, MTT assay, 48 h incubation
Experimental: (§1) The biological behaviour of all substances was characterized by their cytotoxic activity against a panel of cell lines enabling an understanding of the structure-activity relationship. Cytotoxic activity was determined on ovarian carcinoma cell lines SKOV3 and A2780 as well as their Cisplatin resistant analogues (SKOV3cis and A2780cis) and the lung carcinoma cell line A549. Due to a low solubility in water, dmso is used as a solvent for the preparation of a dilution series in cell culture experiments. The toxic influence of dmso was determined earlier and experiments were carried out with 0.5% dmso in cell culture media and this concentration was used as reference sample in each MTT assay (details: Section 3). […] Resistance factors (RF) were determined for all substances (for IC50 values and RF of β-Hydroxydithiocinnamic acid esters L1–L18, see Tables S2 and S3, Supplementary part). All investigated ruthenium(II) compounds show lower RF values than Cisplatin on ovarian carcinoma cell lines, ranging from 0.2 to 1.5 (Table 3). Whereas the IC50 values on the non-resistant cell lines are in most cases higher than the IC50 of the reference substance, no increase of IC50 values is observed for the resistant cell lines. Contrary, eight ruthenium complexes show lower IC50 values on SKOV3cis than Cisplatin and four compounds on A2780cis. Thus, it can be concluded that these compounds are able to bypass the Cisplatin resistance mechanism in these cell lines pointing to a different mechanism of action.
(§2) Ovarian cancer cell lines were cultured under standard conditions (5% CO2, 37 °C, 90% humidity) in RPMI medium supplemented with 10% FCS, 100 U/mL penicillin and 100 µg/mL streptomycin (Life Technologies, Dreieich, Germany). Cisplatin (Sigma, Taufkirchen, Germany) was freshly dissolved at 1 mg/mL in 0.9% NaCl solution and diluted appropriately. New ruthenium(II) complexes and ligands were dissolved in dmso. Platinum-resistant A2780 and SKOV3 cells were established by repeated rounds of 3-day incubations with increasing amounts of Cisplatin starting with 0.1 µM. The concentration was doubled after 3 incubations, interrupted by recovery phases with normal medium. […] Determinations of IC50 values were carried out using the CellTiter96 non-radioactive proliferation assay (MTT assay, Promega, Mannheim, Germany). After seeding 5000 cells per well in a 96-well plate, cells were allowed to attach for 24 h and were incubated for 48 h with different concentrations of the substances ranging from 0 to 500 µM for Ruthenium and 0 to 1000 µM for ligand tests (0, 1, 10, 50, 100, 500, 1000 µm), for Cisplatin from 0 to 100 µM (0.1, 1, 5, 10, 50, 100 µM). Each measurement was done in triplicate and repeated 3 times. The proportion of viable cells was quantified by the MTT assay and after background subtraction relative values compared to the mean of medium controls were calculated. Non-linear regression analyses applying the Hill slope were run in GraphPad 5.0 software.

A2780 = test: MTT assay (CellTiter96), cytotoxic activity; settings: 48 h incubation
Experimental: as §1, §2

A549 = test: MTT assay (CellTiter96), cytotoxic activity; settings: lung carcinoma cell line, 48 h incubation
Experimental: as §1, §2

SKOV3cis = test: MTT assay (CellTiter96), cytotoxic activity; settings: for pIC50: Cisplatin resistant SKOV3, MTT assay, 48 h incubation; for RF SKOV3 (resistance factor): SKOV3cis vs SKOV3
Experimental: as §1, §2

SKOV3 = test: MTT assay (CellTiter96), cytotoxic activity; settings: 48 h incubation
Experimental: as §1, §2

A2780 cells = test: Cell death rate, PI staining of live cells (FACS); settings: 48 h
Experimental: (§3) For cell death rate analysis, live cells were stained with PI immediately after 48 h treatment. […] Furthermore, resistant cells show much lower Cisplatin-induced cell death rates (Figure 7). […] In A2780 cells, both compounds trigger similar cell death rates in parental and Cisplatin-resistant cells. Cisplatin-resistant SKOV3 are much more sensitive to both ruthenium(II) complexes than the parental counterpart, with a median of 3.3-fold higher sensitivity.
(§4) To examine cell cycle distribution and cell death rates, 30,000 cells were seeded in 12 well plates. After attaching for 24 h cells were treated with Cisplatin, Ru3 and Ru14 for 48 h at various concentrations for cell cycle and cell death analyses. For cell death analysis, immediately after treatment cells were stained with Propidium Iodid (PI) (1 µg/mL) on ice and the number of dead cells was measured using BD Canto II. For cell cycle distribution, cells recovered for 24 h after treatment. Afterwards, cells were fixed in ice-cold, 50% EtOH for 24 h at −20 °C. For DNA staining, fixed cells were incubated in PBS with 0.05% Triton-X, 0.1 µg/mL RNaseA and 50 µg/mL PI for 1 h at 4 °C in dark. DNA content was measured using BD Canto II.

[1] = test system: A2780 and SKOV3 cells and the resistant subcultures; test: Cell cycle distribution, PI staining and FACS; settings: 48 h treatment, 24 h recovery
Experimental: The reduced viability under treatment, as measured by the MTT assay, can be a result of cell cycle arrest and/or increased cell death. To further evaluate the anticancer properties of the ruthenium(II) complexes we measured cell cycle distribution and cell death rates after treatment with Ru3 or Ru14. After seeding and attaching, the cells were treated for 48 h with different concentrations of substances. For cell cycle distribution measurements, a recovery phase of 24 h was added after treatment, and cells were fixed and stained with PI for the DNA content. Arresting of cells in specific cell cycle phases gives them time to resolve the DNA damage (G1 arrest) or is an initial step to apoptosis if DNA damage is too severe (G2/M arrest).
as §4

histone γH2AX-foci = test: γH2AX foci analysis (DNA damage); settings: IC50 concentration, 24h incubation
Source text: ROS production may also lead to endoplasmatic reticulum stress-induced apoptosis. In general, many ruthenium(II) complexes with different ligands induce intracellular ROS [94, 95, 96, 97, 98, 99]. Moreover, the cytotoxic activity of Os(II) compounds can be inhibited by vitamin E co-treatment pointing to the contribution of ROS [88]. In addition to mitochondrial dysfunction, Ru(II) complexes may affect glycolysis or topoisomerase I/II, thus inducing necroptosis. Ru(II) compounds with modified pyrithione ligands were recently described to overcome platinum resistance in ovarian cancer cells by inducing cytostatic G1 arrest, TrxR inhibition, and cell membrane damage. […] Future studies may identify the specific target proteins enabling molecular docking studies and specific refinement of the organo-metal compound structure. Altogether, presented compounds may use some of these alternative modes of action as well, as we see efficient cell death but no cell cycle arrest induction by Ru3/Ru14. Furthermore, the ruthenium(II) core atom might be responsible for this effect because of the lack of anticancer behaviour of the ligand L14 (Supplementary Figure S8). To further confirm that Ru compounds use another mechanism of action, DNA damage analyses were conducted for Ru3 and Ru14 (Figure 8). […]

[2] = test system: Cisplatin resistant cell lines; test: Mean IC50 (MTT assay) on Cisplatin resistant cell lines
Experimental: Thus, it can be concluded that the biological activity is mediated by a longer chain (butoxy) at the meta-position, whereas the ortho- and para-positions are more suitable with a shorter chain (ethoxy). To have a further look at the influence of the different ligand systems and substitution patterns, all β-Hydroxydithiocinnamic acid alkyl esters were tested under same conditions as their derived ruthenium(II) complexes (Figure 5B, Supplementary Table S3). […] All ligands are less cytotoxic than Cisplatin itself and therefore the metal(II) center is necessary for the high cytotoxic activity, what is in clear contrast to the literature for O,S-chelating ruthenium(II) or osmium(II) compounds with thiomaltol ligand [48, 71] but confirmed for Ru(II)/Os(II) compounds with N,N-bidentate glycosyl heterocyclic ligands. This is exemplarily shown by the comparison of mean IC50 values for Cisplatin, L14, and Ru14 (Supplementary Figure S8).
as §2

Keratinocytes = test: IC50 on non-cancerous cell cultures; settings: normal primary short-term cell culture
Fibroblasts = test: IC50 on non-cancerous cell cultures; settings: normal primary short-term cell culture
MCF10A = test: IC50 on non-cancerous cell cultures; settings: non-cancerous breast epithelial cell line
SKOV3 cells = test: Cell death rate, PI staining of live cells (FACS); settings: parental SKOV3, 15 µM, 48 h
Experimental: as §3, §4

Compound	RF A2780 (resistance factor) (A2780cis)	pIC50 (A2780cis)	pIC50 (A2780)	pIC50 (A549)	pIC50 (SKOV3cis)	RF SKOV3 (resistance factor) (SKOV3cis)	pIC50 (SKOV3)	capacity to induce cell death in vitro (A2780 cells; A2780 and SKOV3 cells, 20 µM and 30 µM)	effect on cell cycle distribution [1]	γH2AX-foci induction (histone γH2AX-foci)	mean IC50 value on Cisplatin resistant cell lines compared with Cisplatin [2]	pIC50 (Keratinocytes)	pIC50 (Fibroblasts)	pIC50 (MCF10A)	cell death compared to untreated cells (A2780 cells; parental A2780, 15 µM, PI staining) [fold]	cell death compared to untreated cells (SKOV3 cells) [fold]	effect on cell cycle distribution ([1]; 5 µM, parental A2780 and SKOV3 cells)
CSC(=S)C=C([O][Ru][Cl])c1cccc(O)c1.Cc1ccc(C(C)C)cc1 [Ru3, [(η^6-p-cymene)Ru(1-(3-hydroxyphenyl)-3-(methylthio)-3-thioxo-prop-1-en-1-olate-O,S)Cl]]	0.9	5.13	5.06	5.10	4.92	0.6	4.72	high capacity to induce cell death	no or only a minor effect on cell cycle distribution	less γH2AX-foci as Cisplatin	lower						
cis-[Pt(NH3)2Cl2] [Cisplatin]	4.7	5.21	5.89	5.12	4.87	3.6	5.42					5.24	5.39	5.48	29.9	6.3	cell cycle arrest in G2/M phase
